# Measurements as given in PubChem BioAssay AID328 (DTP/NCI, 2004).
# Values joined by “and” are separate entries in the source; they are usually repeats but may differ in a detail not shown here. Equal entries are not always repeated. Inconclusive results and toxic doses are left out.
# Tested on: BDF1 mice, P388 leukemia ip, median survival T/C
# Assay: NCI In Vivo Anticancer Drug Screen. Data for tumor model P388 Leukemia (intraperitoneal) in B6D2F1 (BDF1) mice
# Conditions: endpoint: median survival time, higher = longer survival
# Procedure, shortened: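 Mice carrying the transplantable tumour receive compound or vehicle. Survival is followed in each arm, and the treated measure is divided by the vehicle measure.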
# [1] = dose: 50.0 mg/kg/injection, schedule: Q01DX009 (ip), vehicle: saline with Tween-80
# [2] = dose: 100.0 mg/kg/injection, schedule: Q01DX009 (ip), vehicle: saline with Tween-80
# [3] = dose: 200.0 mg/kg/injection, schedule: Q01DX009 (ip), vehicle: saline with Tween-80
# [4] = dose: 50.0 mg/kg/injection, schedule: Q01DX009 (ip), vehicle: saline
# [5] = dose: 12.5 mg/kg/injection, schedule: Q04DX003 (ip), vehicle: saline
compound,measurement,setting,value
O=[N+]([O-])c1ccc2c(c1)[nH]c1ccccc12,T/C,[1],113 % of control
same,T/C,[2],115 % of control
same,T/C,[3],114 % of control
COc1cc2c(cc1OC)C(OC)N(C)c1c-2ccc2cc3c(cc12)OCO3 (stereo unspecified),T/C,"dose: 1.1 mg/kg/injection, schedule: Q01DX009 (ip), vehicle: water",118 % of control
same,T/C,"dose: 1.4 mg/kg/injection, schedule: Q04DX003 (ip), vehicle: saline with Tween-80",122 % of control
same,T/C,"dose: 1.46 mg/kg/injection, schedule: Q01DX009 (ip), vehicle: saline with Tween-80",160 % of control
same,T/C,"dose: 2.2 mg/kg/injection, schedule: Q01DX009 (ip), vehicle: saline with Tween-80",151 % of control
same,T/C,"dose: 2.5 mg/kg/injection, schedule: Q01DX009 (ip), vehicle: water",181 % of control
same,T/C,"dose: 3.3 mg/kg/injection, schedule: Q01DX009 (ip), vehicle: saline with Tween-80",169 % of control
same,T/C,"dose: 4.4 mg/kg/injection, schedule: Q01DX009 (ip), vehicle: saline with Tween-80",167 % of control
same,T/C,"dose: 5.0 mg/kg/injection, schedule: Q01DX009 (ip), vehicle: saline with Tween-80",176 % of control
same,T/C,"dose: 5.0 mg/kg/injection, schedule: Q01DX009 (ip), vehicle: water",159 % of control and 190 % of control
same,T/C,"dose: 5.0 mg/kg/injection, schedule: Q04DX003 (ip), vehicle: saline with Tween-80",150 % of control
same,T/C,"dose: 6.6 mg/kg/injection, schedule: Q01DX009 (ip), vehicle: saline with Tween-80",216 % of control
same,T/C,"dose: 10.0 mg/kg/injection, schedule: Q01DX009 (ip), vehicle: saline with Tween-80",191 % of control and 218 % of control
same,T/C,"dose: 10.0 mg/kg/injection, schedule: Q01DX009 (ip), vehicle: saline",170 % of control
same,T/C,"dose: 10.0 mg/kg/injection, schedule: Q01DX009 (ip), vehicle: water",177 % of control and 200 % of control
same,T/C,"dose: 10.0 mg/kg/injection, schedule: Q04DX003 (ip), vehicle: other",163 % of control
same,T/C,"dose: 14.6 mg/kg/injection, schedule: Q04DX003 (ip), vehicle: saline with Tween-80",168 % of control
same,T/C,"dose: 15.0 mg/kg/injection, schedule: Q01DX009 (ip), vehicle: saline with Tween-80",188 % of control
same,T/C,"dose: 15.0 mg/kg/injection, schedule: Q04DX003 (ip), vehicle: other",200 % of control
same,T/C,"dose: 20.0 mg/kg/injection, schedule: Q01DX009 (ip), vehicle: saline with Tween-80",220 % of control and 165 % of control
same,T/C,"dose: 20.0 mg/kg/injection, schedule: Q01DX009 (ip), vehicle: saline",195 % of control
same,T/C,"dose: 20.0 mg/kg/injection, schedule: Q01DX009 (ip), vehicle: water",195 % of control and 220 % of control
same,T/C,"dose: 20.0 mg/kg/injection, schedule: Q04DX003 (ip), vehicle: saline",165 % of control
same,T/C,"dose: 22.0 mg/kg/injection, schedule: Q04DX003 (ip), vehicle: saline with Tween-80",168 % of control
same,T/C,"dose: 33.0 mg/kg/injection, schedule: Q04DX003 (ip), vehicle: saline with Tween-80",263 % of control
same,T/C,"dose: 40.0 mg/kg/injection, schedule: Q01DX009 (ip), vehicle: saline with Tween-80",160 % of control and 175 % of control
same,T/C,"dose: 40.0 mg/kg/injection, schedule: Q01DX009 (ip), vehicle: saline",195 % of control
same,T/C,"dose: 40.0 mg/kg/injection, schedule: Q01DX009 (ip), vehicle: water",186 % of control and 200 % of control
same,T/C,"dose: 40.0 mg/kg/injection, schedule: Q04DX003 (ip), vehicle: saline",170 % of control
same,T/C,"dose: 50.0 mg/kg/injection, schedule: Q01DX009 (ip), vehicle: Klucel (hydroxypropylcellulose) (HPC)",205 % of control
same,T/C,"dose: 50.0 mg/kg/injection, schedule: Q04DX002 (ip), vehicle: Klucel (hydroxypropylcellulose) (HPC)",106 % of control
same,T/C,"dose: 50.0 mg/kg/injection, schedule: Q04DX003 (ip), vehicle: saline with Tween-80",231 % of control
same,T/C,"dose: 52.0 mg/kg/injection, schedule: Q01DX009 (ip), vehicle: saline with Tween-80",181 % of control
same,T/C,"dose: 80.0 mg/kg/injection, schedule: Q01DX009 (ip), vehicle: saline",180 % of control
same,T/C,"dose: 80.0 mg/kg/injection, schedule: Q01DX009 (ip), vehicle: water",109 % of control
same,T/C,"dose: 80.0 mg/kg/injection, schedule: Q04DX003 (ip), vehicle: saline",180 % of control
same,T/C,"dose: 100.0 mg/kg/injection, schedule: Q04DX002 (ip), vehicle: Klucel (hydroxypropylcellulose) (HPC)",172 % of control
same,T/C,"dose: 120.0 mg/kg/injection, schedule: Q01DX009 (ip), vehicle: water",113 % of control
same,T/C,"dose: 180.0 mg/kg/injection, schedule: Q01DX009 (ip), vehicle: saline with Tween-80",104 % of control
same,T/C,"dose: 200.0 mg/kg/injection, schedule: Q01DX009 (ip), vehicle: Klucel (hydroxypropylcellulose) (HPC)",200 % of control
same,T/C,"dose: 400.0 mg/kg/injection, schedule: Q04DX002 (ip), vehicle: Klucel (hydroxypropylcellulose) (HPC)",190 % of control
COc1cc2c(cc1OC)C1CC(O)(c3nccc4cc(OC)c(OC)cc34)CCN1CC2 (stereo unspecified),T/C,[1],91 % of control
same,T/C,[2],91 % of control
same,T/C,[3],87 % of control
C=CCC(CC)(C(=O)O)C(=O)O,T/C,[4],100 % of control
same,T/C,"dose: 100.0 mg/kg/injection, schedule: Q01DX009 (ip), vehicle: saline",90 % of control
CC(C)(C)N1CCOCC1,T/C,[5],109 % of control
same,T/C,"dose: 25.0 mg/kg/injection, schedule: Q01DX009 (ip), vehicle: saline",95 % of control
same,T/C,"dose: 25.0 mg/kg/injection, schedule: Q04DX003 (ip), vehicle: saline",95 % of control
same,T/C,[4],86 % of control
same,T/C,"dose: 50.0 mg/kg/injection, schedule: Q04DX003 (ip), vehicle: saline",90 % of control
same,T/C,"dose: 75.0 mg/kg/injection, schedule: Q04DX003 (ip), vehicle: saline",105 % of control
same,T/C,"dose: 115.0 mg/kg/injection, schedule: Q04DX003 (ip), vehicle: saline",120 % of control
Cc1ccc(C(SCC(N)C(=O)O)(c2ccccc2)c2ccccc2)cc1 (stereo unspecified),T/C,"dose: 132.0 mg/kg/injection, schedule: Q04DX003 (ip), vehicle: saline with Tween-80",260 % of control
same,T/C,"dose: 200.0 mg/kg/injection, schedule: Q04DX003 (ip), vehicle: saline with Tween-80",260 % of control
same,T/C,"dose: 300.0 mg/kg/injection, schedule: Q04DX003 (ip), vehicle: saline with Tween-80",95 % of control
Cc1cc2nc(CBr)c(CBr)nc2cc1C,T/C,"dose: 1.56 mg/kg/injection, schedule: Q01DX009 (ip), vehicle: saline",120 % of control
same,T/C,"dose: 3.12 mg/kg/injection, schedule: Q01DX009 (ip), vehicle: saline",120 % of control
same,T/C,"dose: 3.12 mg/kg/injection, schedule: Q04DX003 (ip), vehicle: saline",95 % of control
same,T/C,"dose: 6.25 mg/kg/injection, schedule: Q01DX009 (ip), vehicle: saline",95 % of control
same,T/C,"dose: 6.25 mg/kg/injection, schedule: Q04DX003 (ip), vehicle: saline",100 % of control
same,T/C,"dose: 8.75 mg/kg/injection, schedule: Q01DX001 (ip), vehicle: Klucel (hydroxypropylcellulose) (HPC)",94 % of control
same,T/C,[5],90 % of control
same,T/C,"dose: 17.5 mg/kg/injection, schedule: Q01DX001 (ip), vehicle: Klucel (hydroxypropylcellulose) (HPC)",88 % of control
same,T/C,"dose: 18.0 mg/kg/injection, schedule: Q04DX003 (ip), vehicle: saline",90 % of control
same,T/C,"dose: 35.0 mg/kg/injection, schedule: Q01DX001 (ip), vehicle: Klucel (hydroxypropylcellulose) (HPC)",88 % of control
COc1ccc(-c2c(CC(=O)O)c3cc(OC)ccc3n2Cc2ccc(Cl)cc2)cc1,T/C,[2],90 % of control
same,T/C,[3],113 % of control
same,T/C,"dose: 400.0 mg/kg/injection, schedule: Q01DX009 (ip), vehicle: saline with Tween-80",90 % of control
